Experimental data reported in patent publication US12398154B2, “Azaquinazoline pan-KRas inhibitors” (Mirati Therapeutics, Inc., priority 2020, dated 2025).

Experiments:
pERK in PSN1 cells = assay: Inhibition of KRas phosphorylation of ERK (Cisbio HTRF pERK assay); details: Homo sapiens, PSN1, 3 h, read-out: Inhibition (HTRF IC50) of KRas-mediated Phosphorylation of ERK, PSN1
Experimental: To harvest cells from flask using 0.05% Trypsin/EDTA solution. Add 10 mL of media to stop trypsinizing. Pipette the cells into a conical bottom 50 mL centrifuge tube and centrifuge 5 min×1000 rpm. • 2. Re-suspend the cell pellet in media, take a cell count, and then adjust the cell density using fresh media. • 3. Seed 6,000 cells into cell culture plate with 50 μL media. […] Incubate cell plate overnight in a 37° C., 5% CO2 incubator. • Compound titrations • 1. Use Tecan to complete the compound addition. Compounds start from 10 uM top, 3-fold dilution, and 10 doses. The final DMSO concentration is 0.8%. Dispensed 0.2 uM Trametinib as Min control. • 2. Incubate cell plate for 3 hrs in the incubator. • Detection with cisbio pERK HTRF kit • 1. […] At the end of the compound treatment, flick-off the media. • 3. Add 35 μL of lysis buffer per well using a Multidrop Combi. Then place on a plate agitator shaking at 300 rpm at 4° C. for 40 mins. • 4. Make up the HTRF antibody buffer. For each assay plate, mix 50 μL of d2-conjugate antibody with 950 μL of detection buffer. Similarly, mix 50 μL of Cryptate antibody with 950 μL of detection buffer. Then mix the two diluted antibodies together. • 5. Dispense 3.4 μL the antibody buffer to wells of an empty assay plate. Seal the plate and centrifuge plate 30 sec×1000 rpm. • 6. At the end of the 4° C. lysis, centrifuge the lysate plates 3 mins×1500 rpm. • 7. Use the Bravo to transfer 13.6 μL of lysate from cell culture plate to assay plate.
Then incubate assay plate for 2 hrs at room temperature. […] At the end of incubation, read plate on the Envision after centrifuging plate 30 sec× • 1000 rpm.

pERK in MKN1 cells = assay: as above; details: Homo sapiens, MKN-1, 3 h, read-out: Inhibition (HTRF IC50) of KRas-mediated Phosphorylation of ERK, MKN1
pERK in ASPC1 cells = assay: as above; details: Homo sapiens, ASPC1, read-out: Inhibition (HTRF IC50) of KRas-mediated Phosphorylation of ERK, AsPC-1
pERK in H727 cells = assay: as above; details: Homo sapiens, NCI-H727, read-out: Inhibition (HTRF IC50) of KRas-mediated Phosphorylation of ERK, H727
KRas G12V = KRas G12V (Homo sapiens, UniProt P01116, G12V); assay: biochemical;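 further: KRas binding measured by TR-FRET displacement at room temperature, IC50 fitted from percent of control values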
Chain of KRas G12V (P01116 1-169 isoform P01116-2 G12V): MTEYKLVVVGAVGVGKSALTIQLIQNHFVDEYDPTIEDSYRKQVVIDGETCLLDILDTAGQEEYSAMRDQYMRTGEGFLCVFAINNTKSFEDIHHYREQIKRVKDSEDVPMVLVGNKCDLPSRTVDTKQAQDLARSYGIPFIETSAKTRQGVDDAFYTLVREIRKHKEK
Experimental: (§5) The ability of a compound to bind to KRas was measured using a TR-FRET displacement assay. […] After a 60-minute incubation at room temperature, the reaction was measured using a BMG LABTECH CLARIO star Plus via TR-FRET. […] The POC values were fit to a 4-parameter IC50 equation and the IC50 value reported.

KRas G12D = KRas G12D (Homo sapiens, UniProt P01116, G12D); assay: biochemical;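 further: TR-FRET displacement binding assay on KRas, read after a one-hour incubation at room temperature, IC50 fitted from percent-of-control values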
Chain of KRas G12D (P01116 1-169 isoform P01116-2 G12D): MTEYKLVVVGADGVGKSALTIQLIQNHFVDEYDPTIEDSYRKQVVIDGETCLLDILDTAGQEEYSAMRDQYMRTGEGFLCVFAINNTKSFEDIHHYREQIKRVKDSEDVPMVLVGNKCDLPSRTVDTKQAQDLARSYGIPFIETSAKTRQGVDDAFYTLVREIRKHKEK
Experimental: as §5

pERK in A549 cells = assay: Inhibition of KRas phosphorylation of ERK (Cisbio HTRF pERK assay); details: Homo sapiens, A549, read-out: Inhibition (HTRF IC50) of KRas-mediated Phosphorylation of ERK, A549
pERK in HCT116 cells = assay: as above; details: Homo sapiens, HCT-116, read-out: Inhibition (HTRF IC50) of KRas-mediated Phosphorylation of ERK, HCT116
KRas G12R = KRas G12R (Homo sapiens, UniProt P01116, G12R); assay: biochemical;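 further: TR-FRET displacement assay of compound binding to KRas, read after one hour at room temperature, potency from a four-parameter fit of percent-of-control values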
Chain of KRas G12R (P01116 1-169 isoform P01116-2 G12R): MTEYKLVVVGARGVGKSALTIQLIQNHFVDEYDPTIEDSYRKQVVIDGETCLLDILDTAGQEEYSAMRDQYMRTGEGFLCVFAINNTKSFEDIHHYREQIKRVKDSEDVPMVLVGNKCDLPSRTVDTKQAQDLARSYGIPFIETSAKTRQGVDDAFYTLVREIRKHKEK
Experimental: as §5

[1] = test system: phospho-ERK in NCI-H460 (Q61H) cells; assay: Inhibition of KRas-mediated phosphorylation of ERK (in-cell western); type: cell-based; details: Homo sapiens, NCI-H460, 3 h, 3 hours compound, phospho-ERK normalized to GAPDH
Experimental: (§1) Diluted compounds were then added in a final concentration of 0.5% DMSO. After 3 hours, 50 μL of 4.0% formaldehyde was added and the plates incubated at room temperature for 20 minutes. The plates were then dumped and permeabilized with 150 μL of ice cold 100% methanol for 10 minutes.
(§2) The amount of phospho-ERK was determined using an antibody specific for the phosphorylated form of ERK and compared to the amount of GAPDH. […] The plates were incubated overnight at 4° C. The plates were washed 3× with 150 uL PBS+0.1% Tween 20.
(§3) The plates were washed 3× with 150 uL PBS+0.1% Tween 20. Plates were imaged dry on a Li-COR Odyssey CLX plate reader.
(§4) The phospho-ERK (Thr202/Tyr204) signal was normalized to the GAPDH signal for each well and percent of DMSO control values were calculated. IC50 values were generated using a 4-parameter fit of the dose response curve.

[2] = test system: phospho-ERK in NCI-H727 (G12V) cells; assay: as above; type: cell-based; details: Homo sapiens, NCI-H727, 3 h, 3 hours compound, phospho-ERK normalized to GAPDH
Experimental: as §1, §2, §3, §4

[3] = test system: phospho-ERK in AsPC-1 (G12D) cells; assay: as above; type: cell-based; details: Homo sapiens, ASPC1, 3 h, 3 hours compound, phospho-ERK normalized to GAPDH
Experimental: as §1, §2, §3, §4

KRas G12A = KRas G12A (Homo sapiens, UniProt P01116, G12A); assay: biochemical;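 further: binding to KRas measured by TR-FRET displacement after one hour at room temperature, IC50 from a four-parameter fit of percent-of-control values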
Chain of KRas G12A (P01116 1-169 isoform P01116-2 G12A): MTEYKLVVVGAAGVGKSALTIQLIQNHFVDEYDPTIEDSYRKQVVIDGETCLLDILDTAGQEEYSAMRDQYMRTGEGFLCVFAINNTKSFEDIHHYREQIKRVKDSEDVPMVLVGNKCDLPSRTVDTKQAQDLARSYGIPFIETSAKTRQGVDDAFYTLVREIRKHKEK
Experimental: as §5

KRas G12C = KRas G12C (Homo sapiens, UniProt P01116, G12C); assay: biochemical;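 further: binding to KRas assessed by TR-FRET displacement after one hour incubation at room temperature, potency fitted from percent-of-control values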
Chain of KRas G12C (P01116 1-169 isoform P01116-2 G12C): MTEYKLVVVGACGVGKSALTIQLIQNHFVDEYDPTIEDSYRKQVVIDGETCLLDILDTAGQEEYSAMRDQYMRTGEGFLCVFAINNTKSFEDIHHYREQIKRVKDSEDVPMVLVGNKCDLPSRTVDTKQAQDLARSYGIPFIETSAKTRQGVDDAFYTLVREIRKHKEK
Experimental: as §5

KRas Q61H = molecular target: T1, KRas Q61H (Homo sapiens, UniProt P01116, Q61H); assay: KRas binding assay (TR-FRET displacement);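 further: TR-FRET signal read after one hour at room temperature, IC50 derived by four-parameter fitting of percent-of-control values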
T1 construct: Biotinylated KRas (corresponding to amino acids 1-169, produced at Accelegan Inc.); biotin (biotinylated); purchased Accelegan Inc
T1 sequence (P01116 1-169 isoform P01116-2 Q61H): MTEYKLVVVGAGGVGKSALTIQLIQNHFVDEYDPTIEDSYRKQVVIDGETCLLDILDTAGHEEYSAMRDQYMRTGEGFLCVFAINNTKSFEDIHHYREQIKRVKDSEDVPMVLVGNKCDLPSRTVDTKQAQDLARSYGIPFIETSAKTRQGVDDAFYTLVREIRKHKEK
Experimental: as §5

KRas G13D = molecular target: T2, KRas G13D (Homo sapiens, UniProt P01116, G13D); assay: KRas binding assay (TR-FRET displacement);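 further: One-hour room temperature incubation before TR-FRET reading, IC50 from a four-parameter curve fit to percent-of-control data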
T2 construct: Biotinylated KRas (corresponding to amino acids 1-169, produced at Accelegan Inc.); biotin (biotinylated); purchased Accelegan Inc
T2 sequence (P01116 1-169 isoform P01116-2 G13D): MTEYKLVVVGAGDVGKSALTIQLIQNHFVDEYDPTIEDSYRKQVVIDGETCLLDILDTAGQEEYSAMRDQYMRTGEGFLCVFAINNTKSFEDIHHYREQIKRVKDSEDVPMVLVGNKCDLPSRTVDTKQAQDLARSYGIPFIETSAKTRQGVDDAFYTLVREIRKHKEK
Experimental: as §5

KRas WT = KRas WT (Homo sapiens, UniProt P01116); assay: biochemical;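 further: binding to KRas read as TR-FRET displacement after a one-hour room-temperature incubation, IC50 derived from percent-of-control values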
Chain of KRas WT (P01116 1-169 isoform P01116-2): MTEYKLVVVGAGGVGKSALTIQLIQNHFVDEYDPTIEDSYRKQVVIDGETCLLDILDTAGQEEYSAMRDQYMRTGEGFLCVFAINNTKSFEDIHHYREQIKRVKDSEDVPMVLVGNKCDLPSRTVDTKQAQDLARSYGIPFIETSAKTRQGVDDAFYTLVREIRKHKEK
Experimental: as §5

KRas G12S = KRas G12S (Homo sapiens, UniProt P01116, G12S); assay: biochemical;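 further: TR-FRET displacement binding to KRas, read after one hour incubation at room temperature, IC50 from four-parameter fit of percent of control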
Chain of KRas G12S (P01116 1-169 isoform P01116-2 G12S): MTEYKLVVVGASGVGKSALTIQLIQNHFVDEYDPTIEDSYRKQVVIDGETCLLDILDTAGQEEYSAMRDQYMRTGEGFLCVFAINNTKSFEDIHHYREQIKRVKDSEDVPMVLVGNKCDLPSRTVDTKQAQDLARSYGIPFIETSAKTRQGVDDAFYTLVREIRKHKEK
Experimental: as §5

Compound | IC50 (pERK in PSN1 cells) | IC50 (pERK in MKN1 cells) | IC50 (pERK in ASPC1 cells) | IC50 (pERK in H727 cells) | IC50 (KRas G12V) | IC50 (KRas G12D) | IC50 (pERK in HCT116 cells) | IC50 (KRas G12R) | IC50 (KRas G12A) | IC50 (KRas G12C) | IC50 (KRas Q61H) | IC50 (KRas G13D) | IC50 (KRas WT) | IC50 (KRas G12S) | IC50 (pERK in A549 cells) | IC50 [1] | IC50 [2] | IC50 [3]
C[C@H]1C[C@H]1c1c(Cl)cc2[nH]ncc2c1-c1ncc2c(N3CCC[C@@](C)(O)C3)nc(OC[C@@]34CCCN3C[C@H](F)C4)nc2c1F (racemic) [Example 153, (3R)-1-(7-(6-chloro-5-(2-methylcyclopropyl)-1H-indazol-4-yl)-8-fluoro-2-(((2R,7aS)-2-fluorotetrahydro-1H-pyrrolizin-7a(5H)-yl)methoxy)pyrido[4,3-d]pyrimidin-4-yl)-3-methylpiperidin-3-ol] |  |  |  |  | 0.005 µM | 0.006 µM |  | 0.01 µM | 0.007 µM | 0.007 µM | 7 nM | 8 nM | 0.006 µM | 0.007 µM |  | 306 nM | 500 nM | 233 nM
CCc1c(F)ccc2cc(O)cc(-c3ncc4c(N5CCC[C@@](C)(O)C5)nc(OC[C@@]56CCCN5C[C@H](F)C6)nc4c3F)c12 [Example 5] | 0.364 µM |  | 0.002 µM |  |  |  |  |  |  |  |  |  |  |  | 0.002 µM |  |  | 
Cc1cc(N)nc(-c2ncc3c(N4CCCC(C)(O)C4)nc(OC[C@@]45CCCN4C[C@H](F)C5)nc3c2F)c1C(F)(F)F (stereo partly drawn) [Example 459, 1-(7-(6-amino-4-methyl-3-(trifluoromethyl)pyridin-2-yl)-8-fluoro-2-(((2R,7aS)-2-fluorohexahydro-1H-pyrrolizin-7a-yl)methoxy)pyrido[4,3-d]pyrimidin-4-yl)-3-methylpiperidin-3-ol] |  |  |  |  | 0.766 µM | 0.537 µM |  | 1.01 µM | 0.815 µM | 0.822 µM |  |  | 0.688 µM | 0.821 µM |  | ≥ 10000 nM | ≥ 10000 nM | 9940 nM

Now from value to compound, other results behind:

IC50 (pERK in PSN1 cells) | IC50 (pERK in MKN1 cells) | IC50 (pERK in ASPC1 cells) | IC50 (pERK in H727 cells) | IC50 (KRas G12V) | IC50 (KRas G12D) | IC50 (pERK in HCT116 cells) | IC50 (KRas G12R) | IC50 (KRas G12A) | IC50 (KRas G12C) | IC50 (KRas Q61H) | IC50 (KRas G13D) | IC50 (KRas WT) | IC50 (KRas G12S) | Compound | IC50 (pERK in A549 cells) | IC50 [1] | IC50 [2] | IC50 [3]
3.28 µM | 0.028 µM | 0.339 µM | 0.425 µM | ≤ 0.002 µM | ≤ 0.002 µM | 0.896 µM | ≤ 0.002 µM |  |  |  |  |  |  | CN(C)CC1(COc2nc(N3CCCC4(CNS(=O)(=O)N4)C3)c3cnc(-c4cc(O)cc5ccc(F)c(Cl)c45)c(F)c3n2)CC1 (centres unmarked) [Example 428, 7-(7-(8-chloro-7-fluoro-3-hydroxynaphthalen-1-yl)-2-((1-((dimethylamino)methyl)cyclopropyl)methoxy)-8-fluoropyrido[4,3-d]pyrimidin-4-yl)-2-thia-1,3,7-triazaspiro[4.5]decane 2,2-dioxide] | 0.183 µM |  |  | 
≥ 10 µM | 0.04 µM | 0.155 µM | 0.278 µM | 0.004 µM | 0.006 µM | 0.284 µM | 0.01 µM |  |  |  |  |  |  | CCc1c(F)ccc2cc(O)cc(-c3ncc4c(N5CCCCC(S(C)(=O)=O)C5)nc(OC[C@@]56CCCN5C[C@H](F)C6)nc4c3F)c12 (stereo partly drawn) [Example 308, 5-ethyl-6-fluoro-4-(8-fluoro-2-(((2R,7aS)-2-fluorohexahydro-1H-pyrrolizin-7a-yl)methoxy)-4-(3-(methylsulfonyl)azepan-1-yl)pyrido[4,3-d]pyrimidin-7-yl)naphthalen-2-ol] |  | 372 nM | 627 nM | 489 nM
≥ 10 µM | 0.1 µM |  |  | ≤ 0.002 µM | 0.004 µM |  | ≤ 0.002 µM |  |  |  |  |  |  | CCc1c(F)ccc2cc(O)cc(-c3ncc4c(NCCc5c[nH]nn5)nc(OC[C@@]56CCCN5C[C@H](F)C6)nc4c3F)c12 [Example 169, 4-(4-((2-(1H-1,2,3-triazol-4-yl)ethyl)amino)-8-fluoro-2-(((2R,7aS)-2-fluorohexahydro-1H-pyrrolizin-7a-yl)methoxy)pyrido[4,3-d]pyrimidin-7-yl)-5-ethyl-6-fluoronaphthalen-2-ol] |  | 931 nM | 1810 nM | 2890 nM
